We go through 13 compounds from paper PMC3672506, “A useful EGFR-TK ligand for tumor diagnosis with SPECT: development of radioiodinated 6-(3-morpholinopropoxy)-7-ethoxy-4-(3′-iodophenoxy)quinazoline” (Annals of Nuclear Medicine, 2013).

The target of data set [1] is T1, EGFR-TK (Homo sapiens, UniProt P00533). Nature of the data set: Inhibitory potency against EGFR-TK (SignaTECT protein kinase assay, [32P]ATP phosphorylation). Details: The EGF receptor used was an immunopurified receptor from human A431 cells (Promega, WI); purchased Promega; host or cells: A431 cells (endogenous receptor, immunopurified). The following applies: immunopurified EGF receptor from human A431 cells, inhibition of phosphorylation by [32P]ATP, triplicate. In kind it is biochemical. How it is done: The inhibitory potency of the new derivatives against EGFR-TK was measured using a Signa TECT® Protein Kinase Assay System (Promega, WI) according to the protein tyrosine kinase assay protocol of the attached document. The EGF receptor used was an immunopurified receptor from human A431 cells (Promega, WI). […] The reaction was allowed to proceed for 10 min at 30 °C and then was stopped by the addition of guanidine hydrochloride solution (7.5 M, 13 μL). Each reaction mixture (12.5 μL) was spotted onto a biotin capture membrane. After all of the samples had been spotted, they were washed and rinsed as follows: 1 time for 30 s with 200 mL of 2 M NaCl, 3 times for 2 min each with 200 mL of 2 M NaCl, 4 times for 2 min each with 200 mL of 2 M NaCl in 1 % H3PO4, and 2 times for 30 s each with 100 mL of deionized water. The biotin capture membranes were dried on a piece of aluminum foil under a heat lamp for 5–10 min. The radioactivity trapped on the biotin capture membranes was counted with a liquid scintillation counter in 10 mL of scintillation fluid. The IC50 values were determined from sigmoid curves of the percent inhibition of [^32P]ATP radioactivity.
T1 sequence (P00533 25-1210): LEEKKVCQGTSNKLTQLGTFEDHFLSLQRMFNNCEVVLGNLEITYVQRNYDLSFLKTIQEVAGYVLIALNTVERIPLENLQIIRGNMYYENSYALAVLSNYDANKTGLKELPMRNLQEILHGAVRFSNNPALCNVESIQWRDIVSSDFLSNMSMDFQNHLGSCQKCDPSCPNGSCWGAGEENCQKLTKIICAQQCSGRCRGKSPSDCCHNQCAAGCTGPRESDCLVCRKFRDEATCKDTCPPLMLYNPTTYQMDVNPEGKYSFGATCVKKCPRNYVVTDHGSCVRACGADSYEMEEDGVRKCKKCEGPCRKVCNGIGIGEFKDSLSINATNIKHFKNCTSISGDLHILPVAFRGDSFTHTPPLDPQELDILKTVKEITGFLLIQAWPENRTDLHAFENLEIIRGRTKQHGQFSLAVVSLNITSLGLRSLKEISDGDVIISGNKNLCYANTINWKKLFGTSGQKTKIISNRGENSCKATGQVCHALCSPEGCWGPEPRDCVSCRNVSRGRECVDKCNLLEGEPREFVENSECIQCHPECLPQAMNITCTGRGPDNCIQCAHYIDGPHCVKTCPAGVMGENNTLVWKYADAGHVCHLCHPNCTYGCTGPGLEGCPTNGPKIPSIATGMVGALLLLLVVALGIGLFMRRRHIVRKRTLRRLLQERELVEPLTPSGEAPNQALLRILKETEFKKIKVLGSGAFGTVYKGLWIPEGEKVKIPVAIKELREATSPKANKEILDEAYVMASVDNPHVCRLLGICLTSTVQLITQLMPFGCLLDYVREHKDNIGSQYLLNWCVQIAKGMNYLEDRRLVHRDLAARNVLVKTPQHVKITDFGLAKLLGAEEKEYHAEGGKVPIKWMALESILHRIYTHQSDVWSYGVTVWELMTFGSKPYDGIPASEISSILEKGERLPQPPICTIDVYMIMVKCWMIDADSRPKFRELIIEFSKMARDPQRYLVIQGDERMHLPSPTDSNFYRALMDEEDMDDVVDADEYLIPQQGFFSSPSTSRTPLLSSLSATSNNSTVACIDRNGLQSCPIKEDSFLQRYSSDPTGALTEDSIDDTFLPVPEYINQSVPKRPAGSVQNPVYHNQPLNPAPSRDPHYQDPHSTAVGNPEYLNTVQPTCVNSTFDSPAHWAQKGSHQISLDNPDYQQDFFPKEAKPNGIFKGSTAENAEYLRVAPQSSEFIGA
The inhibitory potency of new phenoxyquinazoline derivatives against EGFR-TK in A431 cell membranes was measured as the inhibition of EGFR phosphorylation by [^32P]ATP.

The target of data set [2] is T1, EGFR-TK. The following applies: inhibitor 1 μM, A431 P2 membranes, 60 min, 25 °C.
Description: The difference between non-treatment and pretreatment data was examined by Student’s paired t test.
For data set [3], the system named is A431 epidermoid carcinoma cell line. The following applies: in vitro; ref [12], [13]; read-out: IC50, cytotoxicity A431 epidermoid carcinoma cell line; cited from earlier work.
In data set [4] the test system is EGFR-TK. Details: method as in PMID 21058048, PMID 22354330. The following applies: ref [21], [22]; cited from earlier work.
In a further data set the test system is A431 tumor. Kind of data set: Tumor uptake of radioiodinated ligands in A431 tumor-bearing mice. In kind it is in vivo, balb/c nude mice. The following applies: A431 tumor-bearing mice; for accumulation in tumors: i.v., 1 h post injection. Here is the method:
A suspension of 1 × 10^7 A431 cells in 0.1 mL of medium was inoculated subcutaneously in male balb/c nude mice (4 weeks old, 20–25 g, n = 3). After approximately 2 weeks, when the solid tumor had grown to optimal size, the mice were used for tumor uptake studies. [^125I]6a–d (37 kBq, 74 TBq/mmol) in 0.1 mL of saline was injected intravenously into tumor-bearing mice via the lateral tail vein. At 1 or 24 h after administration, the animals were sacrificed. Samples of tumor were excised and weighed. Radioactivity was measured using a well-type NaI(Tl) scintillation gamma counter. The results were expressed in terms of percentage of injected dose per gram of tumor.

On the set-up of data set [5]: method as in PMID 21058048, PMID 22354330. The following applies: ref [21], [22]; cited from earlier work.
The target in data set [6] is EGFR-TK in A431 cell membranes (Homo sapiens, UniProt P00533). It counts as binding. The following applies: A431 P2 membranes, Scatchard analysis. How it is done: Assays were carried out as described in the previous section. Crude P2 membrane fractions (A431or NALM6, 0.1 mg of protein, 10 μL) and [^125I]PYK (1–300 nM, 100 μL, 0.74 kBq) were used. […] Specific binding was defined as the difference between the total and non-specific binding. Scatchard plot analysis of the saturation binding data was used to determine the equilibrium dissociation constant (K d) and the maximal number of binding sites (B max).
Chain of EGFR-TK in A431 cell membranes (P00533 25-1210): as above
The crude P2 membrane fraction from A431 or NAlM6 cells were used in further binding experiments for pharmacological characterization. […] While, in the NALM6 as a negative-EGFR leukemia cell line, [^125I]PYK binding to cell membranes was undetectable.

“And” between values parts separate entries of the source, which are not always exact repeats. Equal entries are not always repeated. Where only a bound is given, the exact number is not on record here.

Usually melting point stands for the temperature, or range, at which the solid turns liquid. In general, IC50 refers to the concentration at which inhibition is half-maximal. The compound `CCOc1cc2ncnc(Oc3cccc(I)c3)c2cc1OCCCN1CCOCC1` [6a, 6-(3-Morpholinopropoxy)-7-ethoxy-4-(3′-iodophenoxy)quinazoline] displayed a melting point of 135 to 137 °C. Moreover, the IC50 against EGFR-TK [1] was 12 ± 3.9 nM.

At EGFR-TK [1], `CCOc1cc2ncnc(Oc3cccc(I)c3)c2cc1OCCCN1CCN(C)CC1` [6b, 6-[3-(4-Methylpiperazinylpropoxy)]-7-ethoxy-4-(3′-iodophenoxy)quinazoline] registered an IC50 of 16.5 ± 1.8 nM.

`CCOc1cc2ncnc(Oc3cccc(I)c3)c2cc1OC(C)C` [6c, 6-Isopropoxy-7-ethoxy-4-(3′-iodophenoxy)quinazoline] registered a melting point of 59 to 62 °C. Also, the IC50 against EGFR-TK [1] is 41.5 nM and 113 nM.

As to `CCOc1cc2ncnc(Oc3cccc(I)c3)c2cc1OCCCN(C)C` [6d, 6-(3-Dimethylaminopropoxy)-7-ethoxy-4-(3′-iodophenoxy) quinazoline], the melting point was 64 to 67 °C. The IC50 against EGFR-TK [1] was 113 nM and 41.5 nM.

The compound `CCOc1cc2ncnc(Oc3cccc(I)c3)c2cc1OCCCc1ccccc1` [6e, 6-(3-Phenylpropoxy)-7-ethoxy-4-(3′-iodophenoxy)quinazoline] returned a melting point of 108 to 109 °C. This compound also displayed a half-maximal inhibitory concentration (IC50) at EGFR-TK [1] of more than 500 nM.

Regarding `CCOc1cc2ncnc(Oc3cccc(I)c3)c2cc1OCc1ccccc1` [6f, 6-Benzyloxy-7-ethoxy-4-(3′-iodophenoxy)quinazoline], the melting point fell in the range of 140 to 142 °C. On EGFR-TK [1], this compound had an IC50 of more than 500 nM.

In the case of `O=P(O)(O)C(O)c1ccc2ccccc2c1` (centres unmarked) [HNMPA], on EGFR-TK [2], the “blocking effect on [125I]PYK binding to EGFR-TK” value is listed as “failed to block”.

Turning to `COc1cc2ncnc(Nc3cccc(Br)c3)c2cc1OC` [PD153035, 4-(3-bromoanilino)-6,7-dimethoxyquinazoline], the half-maximal inhibitory concentration (IC50) in data set [3] is 0.029 nM.

For `CCOc1cc2ncnc(Oc3cccc(I)c3)c2cc1OCC` [PHY, 4-(3-Iodophenoxy)-6,7-diethoxyquinazoline, reference compound], the IC50 in the data set on EGFR-TK [4] and on EGFR-TK [1] was 49 ± 7.2 nM in each case.

As to `CCOc1cc2ncnc(Oc3cccc([125I])c3)c2cc1OCCCN(C)C` [[^125I]6d], in the data set with A431 tumor (24 h after injection), the “retention in tumors (in words)” value is reported as “low retention”. The accumulation in tumors with A431 tumor is listed as 0.55 ± 0.12 % ID/g tissue.

The compound `CCOc1cc2ncnc(Oc3cccc([125I])c3)c2cc1OCC` [[^125I]PHY] returned an accumulation in tumors with A431 tumor of 0.56 ± 0.12 % ID/g tissue. In data set [5], the tumor-to-blood ratio was 0.94–1.50 and the tumor-to-muscle ratio is 1.02–1.95.

Usually Kd stands for a measure of binding affinity in units of concentration. Low values mean a tighter complex, high ones a looser complex. Regarding `CCOc1cc2ncnc(Oc3cccc(I)c3)c2cc1OCCCN1CCOCC1` [[^125I]PYK], binding in data set [6] was put at a Kd of 51.3 ± 11.1 nM.

Consider `CCOc1cc2ncnc(Nc3cccc(I)c3)c2cc1OCC` [m-IPQ, 4-(3-Iodoanilino)-6,7-diethoxyquinazoline], for which the IC50 with EGFR-TK [4] was 50.5 ± 3.5 nM. The “blocking effect on [125I]PYK binding to EGFR-TK” value on EGFR-TK [2] is “significant reduction”.
